Among the data in patent US7671212B2, “Isothiazole dioxides as CXC- and CC-chemokine receptor ligands” (Schering Corporation, priority 2003, dated 2010) are Ki and EC50 values, retold here.

Where “and” joins values, the source holds several entries; their conditions need not be identical. Identical values can stand only once.

Experiment [1] concerns the target T1, hCXCR2 (Homo sapiens, UniProt P25025).
T1 construct: purchased Biosignal / Biosignal Packard; host or cells: CHO
T1 sequence (P25025 1-360): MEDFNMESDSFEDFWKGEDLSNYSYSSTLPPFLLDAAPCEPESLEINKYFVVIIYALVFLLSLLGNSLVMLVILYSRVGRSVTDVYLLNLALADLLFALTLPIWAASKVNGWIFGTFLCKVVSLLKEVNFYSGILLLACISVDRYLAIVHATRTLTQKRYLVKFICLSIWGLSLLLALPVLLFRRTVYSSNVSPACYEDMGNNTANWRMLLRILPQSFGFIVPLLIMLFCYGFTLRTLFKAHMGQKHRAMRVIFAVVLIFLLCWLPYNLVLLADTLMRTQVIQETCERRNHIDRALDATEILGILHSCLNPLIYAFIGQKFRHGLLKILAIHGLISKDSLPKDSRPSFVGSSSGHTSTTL
As to the kind of experiment: CXCR2 SPA assay ([125I]-IL-8 binding, incl. alternative 50 μl and 200 μl protocols). Particulars: hCXCR2-CHO membranes. The protocol: For each well of a 96 well plate, a reaction mixture of 4 μg hCXCR2-CHO overexpressing membranes (Biosignal) and 200 μg/well WGA-SPA beads (Amersham) in 100 μl was prepared in CXCR2 assay buffer (25 mM HEPES, pH 7.4, 2 mM CaCl2, 1 mM MgCl2). A 0.4 nM stock of ligand, [125I]-IL-8 (NEN), was prepared in the CXCR2 assay buffer. 20× stock solutions of test compounds were prepared in DMSO (Sigma). A 6× stock solution of GRO-α (R&D) was prepared in CXCR2 assay buffer. The above solutions were added to a 96-well assay plate (PerkinElmer or Corning) as follows: 10 μl test compound or DMSO, 40 ul CXCR2 assay buffer or GRO-α stock, 100 μl of reaction mixture, 50 μl of ligand stock (Final [Ligand]=0.1 nM). When 40× stock solutions of test compounds in DMSO were prepared, then the above protocol was used except instead 5 μl test compound or DMSO and 45 μl CXCR2 assay buffer were used.
Alternative CXCR2 SPA Assay
Protocol Using the CXCR2 50 μl Assay
For each 50 μl reaction, a working stock of 0.031 μg/μl hCXCR2-CHO over-expressing membranes with a specific activity of 0.4 pmol/mg (Biosignal Packard) and 2.5 μg/μl WGA-SPA beads (Perkin Elmer Life Sciences) was prepared in CXCR2 assay buffer (25 mM HEPES, pH 7.4, 2.0 mM CaCl2, 1 mM MgCl2) (Sigma). This mixture was incubated on ice for 5 minutes. A 0.50 nM stock of ligand, [^125I]-IL-8 (Perkin Elmer Life Sciences), was prepared in the CXCR2 assay buffer. Test compounds were first serially diluted by half-logs in DMSO (Sigma) and then diluted 13.3-fold in CXCR2 assay buffer. The above solutions were added to a Corning NBS (non-binding surface) 96-well assay plate as follows: 20 μl test compound or 7.5% DMSO (final [DMSO]=3%), 20 μl of membranes and SPA bead mixture (final [membrane]=0.625 μg/reaction; final [SPA bead]=50 μg/reaction), 10 μl of ligand stock (final [^125I-IL-8]=0.10 nM). The assay plates were incubated for 2 hours before cpm/well were determined in a Microbeta Trilux counter (Perkin Elmer Life Sciences). IC50 values were quantified using nonlinear regression analysis in GraphPad Prism.
Protocol Using the CXCR2 200 μl Assay
For each 200 μl reaction, a working stock of 0.02 μg/μl hCXCR2-CHO over-expressing membranes with a specific activity of 0.6 pmol/mg (Biosignal Packard) and 2 μg/μl WGA-SPA beads (Perkin Elmer Life Sciences) was prepared in CXCR2 assay buffer (25 mM HEPES, pH 7.4, 2.0 mM CaCl2, 1 mM MgCl2) (Sigma). This mixture was incubated on ice for 5 minutes. A 0.40 nM stock of ligand, [^125I]-IL-8 (Perkin Elmer Life Sciences), was prepared in the CXCR2 assay buffer. Test compounds were first serially diluted by half-logs in DMSO (Sigma) and then diluted […] in CXCR2 assay buffer. The above solutions were added to a Corning NBS (non-binding surface) 96-well assay plate as follows: 50 μl test compound or 10% DMSO (final [DMSO]=2.5%), 100 μl of membranes and SPA bead mixture (final [membrane]=2 μg/reaction; final [SPA bead]=200 μg/reaction), 50 μl of ligand stock (final [^125I-IL-8]=0.10 nM). The assay plates were incubated for 2 hours before cpm/well were determined in a Microbeta Trilux counter (Perkin Elmer Life Sciences). IC50 values were quantified using nonlinear regression analysis in GraphPad Prism.

Experiment [2] addresses T2, hCXCR1 (Homo sapiens, UniProt P25024).
T2 construct: purchased Biosignal / Biosignal Packard; Euroscreen (alternative protocol); host or cells: CHO
T2 sequence (P25024 1-350): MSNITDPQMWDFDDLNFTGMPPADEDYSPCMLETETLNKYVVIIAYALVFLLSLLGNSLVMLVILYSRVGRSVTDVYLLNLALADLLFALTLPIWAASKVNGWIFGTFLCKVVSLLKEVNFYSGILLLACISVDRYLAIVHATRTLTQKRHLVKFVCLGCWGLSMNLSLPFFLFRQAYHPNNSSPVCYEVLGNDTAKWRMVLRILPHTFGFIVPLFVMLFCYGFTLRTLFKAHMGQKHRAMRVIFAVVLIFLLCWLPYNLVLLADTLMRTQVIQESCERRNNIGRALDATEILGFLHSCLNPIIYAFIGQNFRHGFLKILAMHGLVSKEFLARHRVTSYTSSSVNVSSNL
The experiment in a line: CXCR1 SPA assay ([125I]-IL-8 binding, incl. alternative Biosignal Packard and Euroscreen membrane protocols). Particulars: hCXCR1-CHO membranes. The protocol: For each well of a 96 well plate, a reaction mixture of 10 μg hCXCR1-CHO overexpressing membranes (Biosignal) and 200 μg/well WGA-SPA beads (Amersham) in 100 μl was prepared in CXCR1 assay buffer (25 mM HEPES, pH 7.8, 2 mM CaCl2, 1 mM MgCl2, 125 mM NaCl, 0.1% BSA) (Sigma). A 0.4 nM stock of ligand, [125I]-IL-8 (NEN) was prepared in the CXCR1 assay buffer. 20× stock solutions of test compounds were prepared in DMSO (Sigma). A 6× stock solution of IL-8 (R&D) was prepared in CXCR2 assay buffer. The above solutions were added to a 96-well assay plate (PerkinElmer) as follows: 10 μl test compound or DMSO, 40 μl CXCR1 assay buffer or IL-8 stock, 100 μl of reaction mixture, 50 μl of ligand stock (Final [Ligand]=0.1 nM).
Alternative CXCR1 SPA Assay
Protocol Using CXCR1-Expressing Membranes from Biosignal Packard
For each 50 μl reaction, a working stock of 0.25 μg/μl hCXCR1-CHO over-expressing membranes with a specific activity of 0.05 pmol/mg (Biosignal Packard) and 25 μg/μl WGA-SPA beads (Perkin Elmer Life Sciences) was prepared in CXCR1 assay buffer (25 mM HEPES, pH 7.8, 0.1 mM CaCl2, 1 mM MgCl2, 100 mM NaCl) (Sigma). […] The assay plates were incubated for 4 hours before cpm/well were determined in a Microbeta Trilux counter (Perkin Elmer Life Sciences). IC50 values were quantified using nonlinear regression analysis in GraphPad Prism. […]

In experiment [3] the target is T3, CCR7 (Homo sapiens, UniProt P32248).
T3 construct: expressed in transfected cells; host or cells: Ba/F3
T3 sequence (P32248 25-378): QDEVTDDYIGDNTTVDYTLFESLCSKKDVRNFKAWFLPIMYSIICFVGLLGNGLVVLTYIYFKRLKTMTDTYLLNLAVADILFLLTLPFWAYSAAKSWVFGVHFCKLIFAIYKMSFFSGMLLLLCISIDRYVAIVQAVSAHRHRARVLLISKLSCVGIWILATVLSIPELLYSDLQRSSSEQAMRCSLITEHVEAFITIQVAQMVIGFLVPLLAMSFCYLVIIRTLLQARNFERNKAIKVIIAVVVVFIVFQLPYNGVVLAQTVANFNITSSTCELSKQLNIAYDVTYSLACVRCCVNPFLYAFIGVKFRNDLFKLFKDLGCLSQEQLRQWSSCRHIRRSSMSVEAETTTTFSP
As to the kind of experiment: CCR7 [35S]GTPγS exchange assay (SPA, Ba/F3-CCR7 membranes, MIP-3β). The settings on record: 2 nM MIP-3β. It is filed as biochemical. The protocol: CCR7 Membrane Preparation.
Ba/F3-CCR7 membranes were prepared as previously described (Hipkin et al., J. Biol. Chem., 272, 1997, 13869-76). Cells were pelleted by centrifugation, incubated in homogenization buffer (10 mM Tris-HCl, 5 mM EDTA, 3 mM EGTA, pH 7.6) and 1 μM PMSF for 30 min. on ice. The cells were then lysed with a Dounce homogenizer using stirrer type RZR3 polytron homogenizer (Caframo, Wiarton, Ont.) with 12 strokes at 900 RPM. The intact cells and nuclei were removed by centrifugation at 500×g for 5 min. The cell membranes in the supernatant were then pelleted by centrifugation at 100,000×g for 30 min. The membranes were then resuspended in glygly buffer (20 mM glycylglycine, 1 mM MgCl2, 250 mM sucrose, pH 7.2), aliquoted, quick frozen and stored at −80° C.
CCR7 [^35S]GTPγS Exchange Assay.
The exchange of guanosine 5′-[γ-^35S]triphospate ([^35S]GTPγS, triethylammonium salt; specific activity=1250 Ci/mmol; NEN Boston, Mass.) was measured using a scintillation proximity assay (SPA) as previously described (Cox, et. al., Mol. Pharmacol., 59, 2001, 707-15). […] Membrane-bound [^35S]GTPγS was measured using a 1450 Microbeta Trilux counter (Wallac, Gaithersburg, Md.).

Turning to `CCOC(=O)C1=C(Nc2cccc(C(=O)N(C)C)c2O)C(N[C@H](CC)c2ccc(C)o2)=NS1(=O)=O` [Example 1], in experiment [1], the Ki was 7.6 to 51 nM.

On to `CC[C@@H](NC1=NS(=O)(=O)C=C1Nc1cccc(C(=O)N(C)C)c1O)c1ccc(C)o1` [Example 2], for which the Ki in experiment [1] is 7.6 nM and 7.6 to 51 nM.

On to `CCOC(=O)C1=C(N[C@H](CC)c2ccccc2)C(Nc2cccc(C(=O)N(C)C)c2O)=NS1(=O)=O` [Example 3], for which, in experiment [1], the Ki lay within 7.6 to 51 nM.

In experiment [1], `CC[C@@H](NC1=CS(=O)(=O)N=C1Nc1cccc(C(=O)N(C)C)c1O)c1ccccc1` [Example 4] yielded a Ki of 7.6 to 51 nM.

Take `CCOC(=O)C1=C(Nc2cccc(C(=O)N(C)C)c2O)C(N[C@@H](c2cc(C)c(C)o2)C(C)C)=NS1(=O)=O` [Example 5]: the inhibitory constant (Ki) in experiment [1] lay within 7.6 to 51 nM.

As to `Cc1cc([C@H](NC2=NS(=O)(=O)C=C2Nc2cccc(C(=O)N(C)C)c2O)C(C)C)oc1C` [Example 6], the Ki in experiment [1] is 19 nM and 7.6 to 51 nM; in experiment [2] it was 345 nM.

Regarding `CCOC(=O)C1=C(Nc2cccc(C(=O)N(C)C)c2O)C(N[C@H](CC)c2cc(C(C)C)co2)=NS1(=O)=O` [Example 162], the EC50 in experiment [3] came to 9.5 µM. This lies in the single-digit micromolar range.
